Like-named read-outs stand apart in the source and are kept apart here. Positions of bridges follow the written chain, without caps; N, C: chain ends. Residues, ends and D or L forms follow the SMILES beside them.
Tests used:
Test in all cases: cell-based
hNav1.5 = hNav1.5 (Homo sapiens, UniProt Q14524); conditions: IonWorks Quattro, use-dependent protocol, hNav1.5; read-out: IWQ Use Nav1.5
hNav1.3 = hNav1.3 (Homo sapiens, UniProt Q9NY46); conditions: IonWorks Quattro, use-dependent protocol, hNav1.3; read-out: IWQ Use Nav1.3
Chain of hNav1.3 (Q9NY46 whole entry, looked up): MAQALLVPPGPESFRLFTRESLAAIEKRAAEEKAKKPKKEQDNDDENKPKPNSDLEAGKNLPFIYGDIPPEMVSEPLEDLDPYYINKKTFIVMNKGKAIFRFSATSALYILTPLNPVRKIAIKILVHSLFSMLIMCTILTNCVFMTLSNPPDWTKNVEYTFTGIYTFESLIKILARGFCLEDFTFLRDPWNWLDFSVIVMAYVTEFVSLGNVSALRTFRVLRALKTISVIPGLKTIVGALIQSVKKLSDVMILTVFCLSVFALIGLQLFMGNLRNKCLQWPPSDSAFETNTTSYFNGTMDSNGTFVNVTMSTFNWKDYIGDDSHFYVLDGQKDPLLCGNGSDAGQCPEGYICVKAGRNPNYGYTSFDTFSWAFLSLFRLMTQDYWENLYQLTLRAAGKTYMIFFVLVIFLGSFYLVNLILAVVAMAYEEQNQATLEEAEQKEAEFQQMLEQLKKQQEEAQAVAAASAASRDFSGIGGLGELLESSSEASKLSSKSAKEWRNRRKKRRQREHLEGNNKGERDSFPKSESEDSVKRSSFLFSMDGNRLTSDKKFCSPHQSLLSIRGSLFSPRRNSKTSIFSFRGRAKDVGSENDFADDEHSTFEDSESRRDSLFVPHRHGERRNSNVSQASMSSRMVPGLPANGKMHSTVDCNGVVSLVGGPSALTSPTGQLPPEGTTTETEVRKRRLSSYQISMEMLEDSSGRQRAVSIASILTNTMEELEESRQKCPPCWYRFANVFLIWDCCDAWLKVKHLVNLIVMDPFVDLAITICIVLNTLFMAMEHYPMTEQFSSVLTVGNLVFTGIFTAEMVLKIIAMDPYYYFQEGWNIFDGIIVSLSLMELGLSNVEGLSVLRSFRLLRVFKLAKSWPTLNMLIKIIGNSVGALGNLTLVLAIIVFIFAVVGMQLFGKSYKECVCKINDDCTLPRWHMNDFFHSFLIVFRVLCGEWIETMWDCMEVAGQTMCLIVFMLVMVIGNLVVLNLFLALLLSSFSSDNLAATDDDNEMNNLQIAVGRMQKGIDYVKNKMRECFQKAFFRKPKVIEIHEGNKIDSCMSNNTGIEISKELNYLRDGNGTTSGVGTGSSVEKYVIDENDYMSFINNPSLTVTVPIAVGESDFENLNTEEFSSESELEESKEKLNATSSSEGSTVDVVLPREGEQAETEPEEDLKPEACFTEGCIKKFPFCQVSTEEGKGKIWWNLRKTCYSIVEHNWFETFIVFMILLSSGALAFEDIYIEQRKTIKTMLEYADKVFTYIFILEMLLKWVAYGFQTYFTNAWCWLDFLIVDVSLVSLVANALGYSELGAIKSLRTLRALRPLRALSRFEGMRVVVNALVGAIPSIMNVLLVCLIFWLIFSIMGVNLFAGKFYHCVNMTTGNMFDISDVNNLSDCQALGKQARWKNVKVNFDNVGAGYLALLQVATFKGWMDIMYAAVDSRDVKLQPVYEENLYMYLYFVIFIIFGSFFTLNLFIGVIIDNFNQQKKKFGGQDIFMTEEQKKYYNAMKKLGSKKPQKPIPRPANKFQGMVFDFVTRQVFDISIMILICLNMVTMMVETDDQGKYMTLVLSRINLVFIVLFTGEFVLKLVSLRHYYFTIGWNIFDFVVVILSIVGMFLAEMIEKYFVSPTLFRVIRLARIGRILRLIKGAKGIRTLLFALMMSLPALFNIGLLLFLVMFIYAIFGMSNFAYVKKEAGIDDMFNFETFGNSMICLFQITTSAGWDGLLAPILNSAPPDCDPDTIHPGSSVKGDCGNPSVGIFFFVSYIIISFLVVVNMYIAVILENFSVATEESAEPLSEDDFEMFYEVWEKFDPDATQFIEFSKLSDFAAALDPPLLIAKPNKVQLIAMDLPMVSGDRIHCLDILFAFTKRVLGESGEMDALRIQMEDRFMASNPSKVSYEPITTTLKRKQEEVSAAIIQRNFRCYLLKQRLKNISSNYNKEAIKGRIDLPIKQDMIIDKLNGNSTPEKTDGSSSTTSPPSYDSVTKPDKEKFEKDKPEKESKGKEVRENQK

hNav1.7 = hNav1.7 (Homo sapiens, UniProt Q15858); format: cell-based
Chain of hNav1.7 (Q15858 whole entry, looked up): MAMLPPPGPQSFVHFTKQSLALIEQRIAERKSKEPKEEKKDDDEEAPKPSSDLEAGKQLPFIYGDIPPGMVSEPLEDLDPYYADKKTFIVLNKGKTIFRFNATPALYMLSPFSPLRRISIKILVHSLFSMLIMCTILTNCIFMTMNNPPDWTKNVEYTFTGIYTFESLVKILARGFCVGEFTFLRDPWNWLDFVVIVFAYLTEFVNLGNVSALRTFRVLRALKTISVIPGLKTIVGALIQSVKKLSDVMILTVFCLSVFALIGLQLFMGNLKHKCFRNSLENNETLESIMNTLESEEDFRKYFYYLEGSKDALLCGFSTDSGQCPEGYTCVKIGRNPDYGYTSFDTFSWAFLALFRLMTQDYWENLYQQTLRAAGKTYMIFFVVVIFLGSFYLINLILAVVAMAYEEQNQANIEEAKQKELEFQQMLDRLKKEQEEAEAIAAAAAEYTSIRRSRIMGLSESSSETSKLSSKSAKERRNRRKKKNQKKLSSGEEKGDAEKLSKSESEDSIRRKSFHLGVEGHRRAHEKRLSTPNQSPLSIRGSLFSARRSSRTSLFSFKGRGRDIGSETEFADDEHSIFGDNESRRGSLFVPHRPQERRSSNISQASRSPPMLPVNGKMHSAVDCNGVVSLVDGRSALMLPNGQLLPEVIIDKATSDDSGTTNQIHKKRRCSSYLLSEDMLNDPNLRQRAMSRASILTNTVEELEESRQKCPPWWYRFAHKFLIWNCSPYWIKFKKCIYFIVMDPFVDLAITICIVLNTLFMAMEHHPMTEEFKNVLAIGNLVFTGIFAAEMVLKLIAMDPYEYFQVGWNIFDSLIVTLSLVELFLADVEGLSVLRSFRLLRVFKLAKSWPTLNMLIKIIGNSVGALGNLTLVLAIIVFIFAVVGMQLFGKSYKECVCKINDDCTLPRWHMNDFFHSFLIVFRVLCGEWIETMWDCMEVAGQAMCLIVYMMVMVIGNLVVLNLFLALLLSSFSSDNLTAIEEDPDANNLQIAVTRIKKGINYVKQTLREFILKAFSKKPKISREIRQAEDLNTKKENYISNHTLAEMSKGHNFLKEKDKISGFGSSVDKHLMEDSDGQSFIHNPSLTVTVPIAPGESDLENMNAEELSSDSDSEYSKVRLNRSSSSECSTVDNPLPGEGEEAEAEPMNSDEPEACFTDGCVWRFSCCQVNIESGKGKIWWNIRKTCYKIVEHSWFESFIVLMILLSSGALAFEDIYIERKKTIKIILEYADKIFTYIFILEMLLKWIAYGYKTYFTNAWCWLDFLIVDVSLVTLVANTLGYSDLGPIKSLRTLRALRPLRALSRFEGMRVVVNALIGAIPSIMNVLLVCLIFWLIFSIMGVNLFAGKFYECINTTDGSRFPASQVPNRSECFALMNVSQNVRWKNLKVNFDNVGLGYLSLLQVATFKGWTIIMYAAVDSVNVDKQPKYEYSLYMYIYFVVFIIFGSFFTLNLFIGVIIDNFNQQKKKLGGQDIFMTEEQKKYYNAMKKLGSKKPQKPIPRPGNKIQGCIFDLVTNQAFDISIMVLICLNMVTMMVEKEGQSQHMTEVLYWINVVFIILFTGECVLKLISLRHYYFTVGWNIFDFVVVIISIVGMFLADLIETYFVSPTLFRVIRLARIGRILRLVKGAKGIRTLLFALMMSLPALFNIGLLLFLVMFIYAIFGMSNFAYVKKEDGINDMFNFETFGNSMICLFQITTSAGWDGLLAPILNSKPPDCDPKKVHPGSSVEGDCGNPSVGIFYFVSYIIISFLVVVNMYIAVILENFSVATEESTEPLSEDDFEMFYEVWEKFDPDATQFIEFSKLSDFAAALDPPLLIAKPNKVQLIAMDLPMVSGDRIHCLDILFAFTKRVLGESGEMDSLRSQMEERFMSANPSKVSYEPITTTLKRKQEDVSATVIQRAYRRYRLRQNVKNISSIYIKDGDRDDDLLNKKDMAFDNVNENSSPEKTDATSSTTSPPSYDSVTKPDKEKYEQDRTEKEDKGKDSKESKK

[1] = IonWorks Quattro, use-dependent protocol, hNav1.7, read-out: IWQ Use Nav1.7

CC[C@H](C)[C@@H]1NC(=O)[C@@H]2CSSC[C@@H]3NC(=O)[C@H](C(C)C)NC(=O)[C@H](CC(C)C)NC(=O)[C@H](CC(N)=O)NC(=O)[C@@H]4CCCN4C(=O)[C@H](CCCNC(=N)N)NC(=O)[C@H](CSSC[C@H](NC(=O)[C@@H](N)CC(=O)O)C(=O)N[C@@H](CC(C)C)C(=O)NCC(=O)N[C@@H](Cc4cccnc4)C(=O)N[C@@H](CC(C)C)C(=O)N[C@@H](CCCNC(=N)N)C(=O)N[C@@H](CCCCN)C(=O)N2)NC(=O)[C@H](CSSC[C@@H](C(=O)N[C@@H](CCCCN)C(=O)N[C@@H](Cc2ccc(O)cc2)C(=O)N[C@H](C(=O)N[C@@H](Cc2ccccc2)C(N)=O)C(C)C)NC(=O)[C@H](Cc2c[nH]c4ccccc24)NC(=O)[C@H](CCCCN)NC(=O)[C@H](Cc2c[nH]cn2)NC(=O)[C@H]([C@@H](C)O)NC(=O)[C@H](CCCNC(=N)N)NC(=O)[C@H](CO)NC3=O)NC(=O)[C@H](CCCCN)NC(=O)[C@H](CC(=O)O)NC(=O)[C@H](CC(N)=O)NC(=O)[C@H](CC(=O)O)NC(=O)[C@@H]2CCCN2C1=O [compound 642]
IC50 (hNav1.5): > 5000 nM | IC50 (hNav1.3): 3900 nM | IC50 (hNav1.7; [1]): 1700 nM

CC[C@H](C)[C@@H]1NC(=O)[C@@H]2CSSC[C@@H]3NC(=O)[C@H](C(C)C)NC(=O)[C@H](CC(C)C)NC(=O)[C@H](CC(N)=O)NC(=O)[C@@H]4CCCN4C(=O)[C@H](CCCNC(=N)N)NC(=O)[C@H](CSSC[C@H](NC(=O)[C@@H](N)CC(=O)O)C(=O)N[C@@H](CC(C)C)C(=O)NCC(=O)N[C@@H](CO)C(=O)N[C@@H](CC(C)C)C(=O)N[C@@H](CCCNC(=N)N)C(=O)N[C@@H](CCCCN)C(=O)N2)NC(=O)[C@H](CSSC[C@@H](C(=O)N[C@@H](CCCCN)C(=O)N[C@@H](Cc2ccc(O)cc2)C(=O)N[C@H](C(=O)N[C@@H](Cc2ccccc2)C(N)=O)C(C)C)NC(=O)[C@H](Cc2c[nH]c4ccccc24)NC(=O)[C@H](CCCCN)NC(=O)[C@H](Cc2c[nH]cn2)NC(=O)[C@H]([C@@H](C)O)NC(=O)[C@H](CCCNC(=N)N)NC(=O)[C@H](CO)NC3=O)NC(=O)[C@H](CCCCN)NC(=O)[C@H](CC(=O)O)NC(=O)[C@H](CC(N)=O)NC(=O)[C@H](CC(=O)O)NC(=O)[C@@H]2CCCN2C1=O [compound 643] (H-DCLGSLRKCIPDNDKCCRPNLVCSRTHKWCKYVF-NH2; disulfide 2-17, 9-23, 16-30)
IC50 (hNav1.5): > 5000 nM | IC50 (hNav1.3): 3200 nM | IC50 (hNav1.7; [1]): 1300 nM

CC[C@H](C)[C@@H]1NC(=O)[C@@H]2CSSC[C@@H]3NC(=O)[C@H](C(C)C)NC(=O)[C@H](CC(C)C)NC(=O)[C@H](CC(N)=O)NC(=O)[C@@H]4CCCN4C(=O)[C@H](CCCNC(=N)N)NC(=O)[C@H](CSSC[C@H](NC(=O)[C@@H](N)CC(=O)O)C(=O)N[C@@H](CC(C)C)C(=O)NCC(=O)N[C@@H](C(C)C)C(=O)N[C@@H](CC(C)C)C(=O)N[C@@H](CCCNC(=N)N)C(=O)N[C@@H](CCCCN)C(=O)N2)NC(=O)[C@H](CSSC[C@@H](C(=O)N[C@@H](CCCCN)C(=O)N[C@@H](Cc2ccc(O)cc2)C(=O)N[C@H](C(=O)N[C@@H](Cc2ccccc2)C(N)=O)C(C)C)NC(=O)[C@H](Cc2c[nH]c4ccccc24)NC(=O)[C@H](CCCCN)NC(=O)[C@H](Cc2c[nH]cn2)NC(=O)[C@H]([C@@H](C)O)NC(=O)[C@H](CCCNC(=N)N)NC(=O)[C@H](CO)NC3=O)NC(=O)[C@H](CCCCN)NC(=O)[C@H](CC(=O)O)NC(=O)[C@H](CC(N)=O)NC(=O)[C@H](CC(=O)O)NC(=O)[C@@H]2CCCN2C1=O [compound 644] (H-DCLGVLRKCIPDNDKCCRPNLVCSRTHKWCKYVF-NH2; disulfide 2-17, 9-23, 16-30)
IC50 (hNav1.5): > 5000 nM | IC50 (hNav1.3): 480 nM | IC50 (hNav1.7; [1]): 150 nM

CC[C@H](C)[C@@H]1NC(=O)[C@@H]2CSSC[C@@H]3NC(=O)[C@H](C(C)C)NC(=O)[C@H](CC(C)C)NC(=O)[C@H](CC(N)=O)NC(=O)[C@@H]4CCCN4C(=O)[C@H](CCCNC(=N)N)NC(=O)[C@H](CSSC[C@H](NC(=O)[C@@H](N)CC(=O)O)C(=O)N[C@@H](CC(C)C)C(=O)NCC(=O)N[C@@H](Cc4ccc(OC)c(OC)c4)C(=O)N[C@@H](CC(C)C)C(=O)N[C@@H](CCCNC(=N)N)C(=O)N[C@@H](CCCCN)C(=O)N2)NC(=O)[C@H](CSSC[C@@H](C(=O)N[C@@H](CCCCN)C(=O)N[C@@H](Cc2ccc(O)cc2)C(=O)N[C@H](C(=O)N[C@@H](Cc2ccccc2)C(N)=O)C(C)C)NC(=O)[C@H](Cc2c[nH]c4ccccc24)NC(=O)[C@H](CCCCN)NC(=O)[C@H](Cc2c[nH]cn2)NC(=O)[C@H]([C@@H](C)O)NC(=O)[C@H](CCCNC(=N)N)NC(=O)[C@H](CO)NC3=O)NC(=O)[C@H](CCCCN)NC(=O)[C@H](CC(=O)O)NC(=O)[C@H](CC(N)=O)NC(=O)[C@H](CC(=O)O)NC(=O)[C@@H]2CCCN2C1=O [compound 645]
IC50 (hNav1.5): > 5000 nM | IC50 (hNav1.3): 2600 nM | IC50 (hNav1.7; [1]): 2400 nM

CC[C@H](C)[C@@H]1NC(=O)[C@@H]2CSSC[C@@H]3NC(=O)[C@H](C(C)C)NC(=O)[C@H](CC(C)C)NC(=O)[C@H](CC(N)=O)NC(=O)[C@@H]4CCCN4C(=O)[C@H](CCCNC(=N)N)NC(=O)[C@H](CSSC[C@H](NC(=O)[C@@H](N)CC(=O)O)C(=O)N[C@@H](CC(C)C)C(=O)NCC(=O)N(C)CC(=O)N[C@@H](CC(C)C)C(=O)N[C@@H](CCCNC(=N)N)C(=O)N[C@@H](CCCCN)C(=O)N2)NC(=O)[C@H](CSSC[C@@H](C(=O)N[C@@H](CCCCN)C(=O)N[C@@H](Cc2ccc(O)cc2)C(=O)N[C@H](C(=O)N[C@@H](Cc2ccccc2)C(N)=O)C(C)C)NC(=O)[C@H](Cc2c[nH]c4ccccc24)NC(=O)[C@H](CCCCN)NC(=O)[C@H](Cc2c[nH]cn2)NC(=O)[C@H]([C@@H](C)O)NC(=O)[C@H](CCCNC(=N)N)NC(=O)[C@H](CO)NC3=O)NC(=O)[C@H](CCCCN)NC(=O)[C@H](CC(=O)O)NC(=O)[C@H](CC(N)=O)NC(=O)[C@H](CC(=O)O)NC(=O)[C@@H]2CCCN2C1=O [compound 646]
IC50 (hNav1.5): > 5000 nM | IC50 (hNav1.3): 1700 nM | IC50 (hNav1.7; [1]): 920 nM

CC[C@H](C)[C@@H]1NC(=O)[C@@H]2CSSC[C@@H]3NC(=O)[C@H](C(C)C)NC(=O)[C@H](CC(C)C)NC(=O)[C@H](CC(N)=O)NC(=O)[C@@H]4CCCN4C(=O)[C@H](CCCNC(=N)N)NC(=O)[C@H](CSSC[C@H](NC(=O)[C@@H](N)CC(=O)O)C(=O)N[C@@H](CC(C)C)C(=O)NCC(=O)N[C@H](C)C(=O)N[C@@H](CCSC)C(=O)N[C@@H](CCCNC(=N)N)C(=O)N[C@@H](CCCCN)C(=O)N2)NC(=O)[C@H](CSSC[C@@H](C(=O)N[C@@H](CCCCN)C(=O)N[C@@H](Cc2ccc(O)cc2)C(=O)N[C@H](C(=O)N[C@@H](Cc2ccccc2)C(N)=O)C(C)C)NC(=O)[C@H](Cc2c[nH]c4ccccc24)NC(=O)[C@H](CCCCN)NC(=O)[C@H](Cc2c[nH]cn2)NC(=O)[C@H]([C@@H](C)O)NC(=O)[C@H](CCCNC(=N)N)NC(=O)[C@H](CO)NC3=O)NC(=O)[C@H](CCCCN)NC(=O)[C@H](CC(=O)O)NC(=O)[C@H](CC(N)=O)NC(=O)[C@H](CC(=O)O)NC(=O)[C@@H]2CCCN2C1=O [compound 647]
IC50 (hNav1.5): > 5000 nM | IC50 (hNav1.3): > 5000 nM | IC50 (hNav1.7): 4500 nM
